US6528528B2 (Warner-Lambert Company, priority 1997, dated 2003)

target: T1, rabbit reticulocyte 15-LO (Oryctolagus cuniculus, UniProt P12530); test: Rabbit Reticulocyte 15-LO Assay (h15LO); format: biochemical; details: Table 1; 2U rabbit reticulocyte 15-LO, 174 μM linoleic acid, 15 minutes at 4° C.
T1 construct: Fifteen-lipoxygenase was obtained from phenylhydrazine-treated rabbits and purified per the method of Rapoport; from tissue; host or cells: reticulocytes of phenylhydrazine-treated rabbits
T1 sequence (P12530 1-663): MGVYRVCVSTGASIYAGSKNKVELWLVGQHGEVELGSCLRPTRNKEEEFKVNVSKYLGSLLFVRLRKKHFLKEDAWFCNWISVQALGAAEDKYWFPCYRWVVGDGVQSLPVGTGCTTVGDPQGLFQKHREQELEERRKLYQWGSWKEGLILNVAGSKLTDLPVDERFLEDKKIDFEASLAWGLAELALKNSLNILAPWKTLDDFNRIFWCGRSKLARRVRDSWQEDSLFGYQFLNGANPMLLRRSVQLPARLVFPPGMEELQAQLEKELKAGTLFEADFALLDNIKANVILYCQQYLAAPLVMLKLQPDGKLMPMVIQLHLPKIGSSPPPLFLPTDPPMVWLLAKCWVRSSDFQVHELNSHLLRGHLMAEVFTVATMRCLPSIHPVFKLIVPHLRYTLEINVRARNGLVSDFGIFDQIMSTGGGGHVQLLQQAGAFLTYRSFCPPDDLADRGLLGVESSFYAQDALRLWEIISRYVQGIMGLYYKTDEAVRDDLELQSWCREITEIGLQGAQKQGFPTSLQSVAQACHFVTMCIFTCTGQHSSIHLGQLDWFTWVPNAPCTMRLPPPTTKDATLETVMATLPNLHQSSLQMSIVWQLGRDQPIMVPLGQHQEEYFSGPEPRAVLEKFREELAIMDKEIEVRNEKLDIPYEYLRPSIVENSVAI
Description: Rabbit Reticulocyte 15-LO Assay (h15LO)
The present 15-LO assay takes advantage of the ability of 15-LO to oxidize the fatty acid linoleic acid to the hydroperoxy fatty acid 13-(S)HPODE, resulting in the formation of a conjugated diene. The 15-LO inhibitors are incubated with 15-LO enzyme in the presence of linoleic acid substrate. The initial reaction is compared to an uninhibited (maximal) reaction to yield % inhibition. […] This prevents artificial nonenzyme lipid peroxidation and product breakdown in the sample. 13-HPODE is quantitated by comparing peak areas of individual samples with those from a standard curve generated using authentic 13-HODE. This assay is performed using 2U of rabbit reticulocyte 15-LO in the presence of 174 μM linoleic acid. The reaction is incubated for 15 minutes at 4° C. The total reaction volume is 100 μL in PBS containing 0.2% Na cholate.
Fifteen-lipoxygenase was obtained from phenylhydrazine-treated rabbits and purified per the method of Rapoport (Rapoport S. M., Schewe T., Wiesner R., et al. The lipoxygenase of reticulocytes. Purification, characterization, and biological dynamics of the lipoxygenase; its identity with the respiratory inhibitors of the reticulocyte. European Journal of Biochemistry, 1979;96:545-561). The following chemicals were purchased and used as received: linoleic acid (NUJCheck Prep), 13-HPODE (Biomol Research Labs), sodium cholate (Sigma), trimethyl phosphite (Fluka Chemicals).

IC50	Compound
2130 nM	COc1ccc(NC(=O)c2ccccc2)cc1N [Example 21, N-(3-Amino-4-methoxyphenyl)-benzamide]

same assay, conditions: Table 2; 2U rabbit reticulocyte 15-LO, 174 μM linoleic acid, 15 minutes at 4° C.

Compound	IC50
COc1ccc(NC(=O)Nc2ccc(Cl)c(Cl)c2)cc1NC(=S)Nc1cc(Cl)cc(Cl)c1 [Example 171, 1-(3,4-Dichloro-phenyl)-3-{3-[3-(3,5-dichloro-phenyl)-thioureido]-4-methoxy-phenyl}-urea]	275 nM
COc1ccc(C(=O)Nc2ccc(F)c(F)c2)cc1NCc1cccc(F)c1 [Example 212, 3-(3-Fluoro-benzylamino)-4-methoxy-N-(3,4-difluoro-phenyl)-benzamide]	69 nM
O=C(Nc1ccccc1)c1ccc(O)c(Nc2ccccc2)c1 [Example 145, 4-Hydroxy-3-phenylamino-N-phenyl-benzamide]	180 nM
CCCCCCCCCCCCS(=O)(=O)Nc1cc(C(=O)Nc2ccccc2)ccc1OC [Example 177, 3-(Dodecane-1-sulfonylamino)-4-methoxy-N-phenyl-benzamide]	2 nM
COc1ccc(C(=O)Nc2ccccc2)cc1NCc1ccc(F)cc1 [Example 224, 4-Methoxy-3-(4-fluoro-benzylamino)-N-phenyl-benzamide]	982 nM
COc1ccc(C(=O)Nc2ccccc2)cc1NCc1ccccc1F [Example 270, 4-Methoxy-3-(2-fluoro-benzylamino)-N-phenyl-benzamide]	241 nM
COc1ccc(C(=O)Nc2ccccc2)cc1NCc1ccccc1C [Example 223, 4-Methoxy-3-(2-methyl-benzylamino)-N-phenyl-benzamide]	892 nM
COc1ccc(C(=O)Nc2ccc(F)cc2)cc1NCc1cccs1 [Example 260, 4-Methoxy-3-[(thiophen-2-ylmethyl)-amino]-N-(4-fluoro-phenyl)-benzamide]	186 nM
COc1ccc(C(=O)Nc2ccccc2)cc1NCc1cccc([N+](=O)[O-])c1 [Example 215, 4-Methoxy-3-(3-nitro-benzylamino)-N-phenyl-benzamide]	110 nM
COc1ccc(C(=O)Nc2ccc(F)c(F)c2)cc1NCc1cccs1 [Example 258, 4-Methoxy-3-[(thiophen-2-ylmethyl)-amino]-N-(3,4-difluoro-phenyl)-benzamide]	35 nM

Continued, values first:

IC50	Compound
613 nM	CCOC(=O)c1cccc(NC(=O)c2ccc(OC)c(N)c2)c1 [Example 148, 3-(3-Amino-4-methoxy-benzoylamino)-benzoic Acid Ethyl Ester]
46 nM	COc1ccc(C(=O)Nc2ccccc2)cc1NS(=O)(=O)c1cc(Cl)cc(Cl)c1 [Example 248, 3-(3,5-Dichloro-benzenesulfonylamino)-4-methoxy-N-phenyl-benzamide]
33 nM	COc1ccc(S(=O)(=O)Nc2cc(NC(=O)c3ccc(Cl)c(Cl)c3)ccc2OC)cc1 [Example 196, 3,4-Dichloro-N-[4-methoxy-3-(4-methoxy-benzenesulfonylamino)-phenyl]-benzamide]
118 nM	COc1ccc(CNc2cc(C(=O)Nc3ccccc3)ccc2OC)cc1 [Example 216, 4-Methoxy-3-(4-methoxy-benzylamino)-N-phenyl-benzamide]
509 nM	COc1ccc(C(=O)Nc2ccccc2)cc1NCc1ccc(OC(C)=O)cc1 [Example 220, Acetic acid 4-[(2-methoxy-5-phenylcarbamoyl-phenylamino)-methyl]-phenyl Ester]

same assay, conditions: Table 2; concentration not given

Compound	h15LO, value given as bare %
COc1ccc(C(=O)Nc2ccccc2)cc1NS(=O)(=O)c1ccc(C#N)cc1 [Example 192, 3-(4-Cyano-benzenesulfonylamino)-4-methoxy-N -phenyl-benzamide]	95.56%
COc1ccc(C(=O)Nc2cccnc2)cc1NCc1cccs1 [Example 262, 4-Methoxy-3-[(thiophen-2-ylmethyl)-amino]-N-pyridin-3-yl-benzamide]	67.58%
COc1ccc(C(=O)Nc2ccccc2)cc1NC(=S)Nc1cccc([N+](=O)[O-])c1 [Example 254, 4-Methoxy-3-[3-(3-nitro-phenyl)-thioureido]-N-phenyl-benzamide]	51%
COc1ccc(C(=O)Nc2ccccc2)cc1NCc1ccc(C)cc1 [Example 237, 4-Methoxy-3-(4-methyl-benzylamino)-N-phenyl-benzamide]	64%
COc1ccc(NC(=O)c2ccc(F)c(F)c2)cc1NS(=O)(=O)c1cccc(C#N)c1 [Example 205, 3,4-Difluoro-N-[3-(3-cyano-benzenesulfonylamino)-4-methoxy-phenyl]-benzamide]	86.96%
COc1ccc(C(=O)Nc2ccccc2)cc1N(S(=O)(=O)c1cc(Cl)cc(Cl)c1)S(=O)(=O)c1cc(Cl)cc(Cl)c1 [Example 251, 3-[Bis[(3,5-dichlorophenyl)sulfonyl]amino]-4-methoxy-N-phenyl-benzamide]	62.01%
COc1ccc(NC(=O)c2ccc(F)c(F)c2)cc1NCc1cccc(C(=O)O)c1 [Example 246, 3-{[5-(3,4-Difluoro-benzoylamino)-2-methoxy-phenylandno]-methyl}-benzoic Acid]	59.75%
COc1ccc(C(=O)Nc2ccccc2)cc1NCc1ccc(C)c(C)c1 [Example 242, 3-(3,4-Dimethyl-benzylamino)-4-methoxy-N-phenyl-benzamide]	50%
COc1ccc(C(=O)Nc2ccc(Cl)c(Cl)c2)cc1NCc1cccc(F)c1 [Example 240, 3-(3-Fluoro-benzylamino)-4-methoxy-N-(3,4-dichloro-phenyl)-benzamide]	58.09%
COc1ccccc1CNc1cc(C(=O)Nc2ccccc2)ccc1OC [Example 238, 4-Methoxy-3-(2-methoxy-benzylamino)-N-phenyl-benzamide]	60%

Continued, values first:

h15LO, value given as bare %	Compound
93.97%	COc1ccc(NC(=O)c2ccc(F)c(F)c2)cc1NS(=O)(=O)CCl [Example 201, 3,4-Difluoro-N-[4-methoxy-3-(chloromethyl-sulfonylamino)-phenyl]. benzamide]
97.77%	COc1ccc(NC(=O)c2ccc(F)c(F)c2)cc1NS(=O)(=O)c1cccc(N)c1 [Example 198, 3,4-Difluoro-N-[4-methoxy-3-(3-amino-benzenesulfonylamino)-phenyl]-benzamide]
97.88%	COc1ccc(C(=O)Nc2ccccc2)cc1NCc1ccc(O)c([N+](=O)[O-])c1 [Example 225, 3-(4-Hydroxy-3-nitro-benzylamino)-4-methoxy-N-phenyl-benzamide]
93.07%	COc1ccc(C(=O)Nc2ccccc2)cc1NS(=O)(=O)c1cccc(C#N)c1 [Example 195, 3-(3-Cyano-benzenesulfonylamino)-4-methoxy-N-phenyl-benzamide]
90.33%	COC(=O)c1cccc(NC(=O)c2ccc(OC)c(Nc3cccc(C(F)(F)F)c3)c2)c1 [Example 156, 3-[4-Methoxy-3-(3-trifluoromethyl-phenylamino)-benzoylamino]-benzoic Acid Methyl Ester]
92.70%	COc1ccc(C(=O)Nc2ccccc2)cc1NCc1cccc(C#N)c1 [Example 229, 3-(3-Cyano-benzylamino)-4-methoxy-N-phenyl-benzamide]
94.44%	COc1ccc(C(=O)Nc2ccc(F)cc2)cc1Nc1ccc(F)cc1 [Example 155, 3-(4-Fluoro-phenylamino)-4-methoxy-N-(4-fluoro-phenyl)-benzamide]
96.22%	COc1ccc(C(=O)Nc2ccc(F)cc2)cc1NC(=S)Nc1cccc(C(=O)O)c1 [Example 167, 3-{3-[5-(4-Fluoro-phenylcarbamoyl)-2-methoxy-phenyl]-thioureido}-benzoic Acid]
94.51%	COc1ccc(C(=O)Nc2ccc(F)cc2)cc1NS(=O)(=O)c1ccc(C#N)cc1 [Example 193, 3-(4-Cyano-benzenesulfonylamino)-4-methoxy-N-(4-fluoro-phenyl)-benzamide]
96.92%	CCCCCCCCCCCCS(=O)(=O)Nc1cc(NC(=O)c2ccc(F)c(F)c2)ccc1OC [Example 200, 3,4-Difluoro-N-[4-methoxy-3-(1-dodecane-sulfonylamino)-phenyl]-benzamide]
